Patent publication US11034672B1, “Tyrosine kinase inhibitor compositions, methods of making and methods of use” (Black Diamond Therapeutics, Inc., priority 2018, dated 2021)

Experiments:
Type in all cases: cell-based
EGFR WT [1] = molecular target: T1, EGFR WT (Homo sapiens, UniProt P00533); test: Activity for inhibiting EGFR (Table A), EGFR WT; conditions: read-out: EGFR WT, potency code (IC50)
EGFR V3 [2] = molecular target: T2, EGFR V3 (Homo sapiens, UniProt P00533, DELINS30-297G); test: Activity for inhibiting EGFR (Table A), EGFR V3 (EGFR-Viii); conditions: read-out: EGFR V3, potency code (IC50)
T2 construct: expressed in transfected cells; host or cells: BaF3 (murine pro-B), retroviral pMXs-IRES-Blasticidin
T2 sequence (P00533 with tags, fused parts or gaps DELINS30-297G): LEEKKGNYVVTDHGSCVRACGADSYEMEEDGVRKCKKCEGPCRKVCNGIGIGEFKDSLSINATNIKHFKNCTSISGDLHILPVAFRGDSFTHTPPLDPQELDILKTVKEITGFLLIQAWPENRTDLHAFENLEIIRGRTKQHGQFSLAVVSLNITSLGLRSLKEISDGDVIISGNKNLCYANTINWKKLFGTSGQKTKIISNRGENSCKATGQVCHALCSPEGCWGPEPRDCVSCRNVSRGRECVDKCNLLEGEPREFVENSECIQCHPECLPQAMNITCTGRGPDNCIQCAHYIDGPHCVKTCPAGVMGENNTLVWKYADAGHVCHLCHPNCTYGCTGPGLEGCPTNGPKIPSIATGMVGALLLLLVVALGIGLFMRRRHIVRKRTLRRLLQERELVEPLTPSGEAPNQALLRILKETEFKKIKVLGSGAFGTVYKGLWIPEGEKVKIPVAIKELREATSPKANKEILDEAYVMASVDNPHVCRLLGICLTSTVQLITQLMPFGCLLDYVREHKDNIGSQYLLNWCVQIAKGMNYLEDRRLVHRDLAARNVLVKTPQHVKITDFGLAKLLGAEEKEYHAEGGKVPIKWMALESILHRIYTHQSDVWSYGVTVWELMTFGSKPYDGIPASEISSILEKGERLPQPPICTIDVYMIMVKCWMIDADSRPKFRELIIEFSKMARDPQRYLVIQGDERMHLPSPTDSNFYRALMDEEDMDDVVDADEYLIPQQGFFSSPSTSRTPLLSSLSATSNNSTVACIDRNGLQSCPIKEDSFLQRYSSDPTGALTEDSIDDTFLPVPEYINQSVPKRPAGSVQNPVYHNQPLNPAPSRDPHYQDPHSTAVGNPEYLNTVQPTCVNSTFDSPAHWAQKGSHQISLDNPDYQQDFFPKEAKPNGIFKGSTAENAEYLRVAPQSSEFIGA

EGFR NPH [3] = molecular target: T3, EGFR NPH (Homo sapiens, UniProt P00533, DUP771-773); test: Activity for inhibiting EGFR (Table A), EGFR NPH; conditions: read-out: EGFR NPH, potency code (IC50)
T3 construct: expressed in transfected cells; host or cells: BaF3 (murine pro-B), retroviral pMXs-IRES-Blasticidin

EGFR SVD [4] = molecular target: T4, EGFR SVD (Homo sapiens, UniProt P00533, DUP768-770); test: Activity for inhibiting EGFR (Table A), EGFR SVD; conditions: read-out: EGFR SVD, potency code (IC50)
T4 construct: expressed in transfected cells; host or cells: BaF3 (murine pro-B), retroviral pMXs-IRES-Blasticidin
T4 sequence (P00533 with tags, fused parts or gaps DUP768-770): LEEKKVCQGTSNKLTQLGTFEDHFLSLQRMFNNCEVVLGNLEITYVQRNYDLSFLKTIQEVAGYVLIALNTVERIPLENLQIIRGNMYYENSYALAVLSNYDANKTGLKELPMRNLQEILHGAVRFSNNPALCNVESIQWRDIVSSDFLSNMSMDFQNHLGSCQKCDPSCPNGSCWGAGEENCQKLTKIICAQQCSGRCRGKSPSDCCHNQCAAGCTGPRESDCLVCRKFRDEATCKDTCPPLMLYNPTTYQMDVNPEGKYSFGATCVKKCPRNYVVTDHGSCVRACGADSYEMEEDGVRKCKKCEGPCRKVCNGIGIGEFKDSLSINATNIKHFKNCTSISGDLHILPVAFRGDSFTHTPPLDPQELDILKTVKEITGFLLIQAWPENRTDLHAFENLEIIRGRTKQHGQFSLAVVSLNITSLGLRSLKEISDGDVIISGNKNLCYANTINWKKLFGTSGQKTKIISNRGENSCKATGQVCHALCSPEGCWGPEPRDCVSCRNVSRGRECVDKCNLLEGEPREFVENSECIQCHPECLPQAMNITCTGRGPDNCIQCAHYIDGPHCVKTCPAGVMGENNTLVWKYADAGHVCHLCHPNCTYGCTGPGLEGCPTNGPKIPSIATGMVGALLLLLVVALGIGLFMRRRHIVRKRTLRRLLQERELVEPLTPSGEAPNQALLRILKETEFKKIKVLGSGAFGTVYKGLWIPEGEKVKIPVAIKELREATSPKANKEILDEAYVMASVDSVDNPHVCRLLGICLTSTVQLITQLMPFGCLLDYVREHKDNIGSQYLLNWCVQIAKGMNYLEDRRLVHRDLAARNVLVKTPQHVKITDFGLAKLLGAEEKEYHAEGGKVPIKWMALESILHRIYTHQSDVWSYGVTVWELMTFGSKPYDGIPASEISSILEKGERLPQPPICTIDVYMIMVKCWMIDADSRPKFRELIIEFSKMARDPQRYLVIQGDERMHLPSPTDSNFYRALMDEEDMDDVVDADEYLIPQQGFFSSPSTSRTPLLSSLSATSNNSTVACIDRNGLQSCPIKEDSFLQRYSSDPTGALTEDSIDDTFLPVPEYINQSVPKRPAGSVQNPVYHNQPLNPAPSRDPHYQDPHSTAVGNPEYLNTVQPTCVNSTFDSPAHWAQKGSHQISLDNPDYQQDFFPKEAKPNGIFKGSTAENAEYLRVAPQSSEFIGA

HER2 WT [5] = molecular target: T5, HER2 WT (Homo sapiens, UniProt P04626); test: Activity for inhibiting HER2 (Table B), HER2 WT
HER2 S310F [6] = molecular target: T6, HER2 S310F (Homo sapiens, UniProt P04626, S310F); test: Activity for inhibiting HER2 (Table B), HER2 S310F; conditions: read-out: HER2 S310F, potency code (IC50)
T6 construct: expressed in transfected cells; host or cells: BaF3 (murine pro-B)
T6 sequence (P04626 23-1255 S310F): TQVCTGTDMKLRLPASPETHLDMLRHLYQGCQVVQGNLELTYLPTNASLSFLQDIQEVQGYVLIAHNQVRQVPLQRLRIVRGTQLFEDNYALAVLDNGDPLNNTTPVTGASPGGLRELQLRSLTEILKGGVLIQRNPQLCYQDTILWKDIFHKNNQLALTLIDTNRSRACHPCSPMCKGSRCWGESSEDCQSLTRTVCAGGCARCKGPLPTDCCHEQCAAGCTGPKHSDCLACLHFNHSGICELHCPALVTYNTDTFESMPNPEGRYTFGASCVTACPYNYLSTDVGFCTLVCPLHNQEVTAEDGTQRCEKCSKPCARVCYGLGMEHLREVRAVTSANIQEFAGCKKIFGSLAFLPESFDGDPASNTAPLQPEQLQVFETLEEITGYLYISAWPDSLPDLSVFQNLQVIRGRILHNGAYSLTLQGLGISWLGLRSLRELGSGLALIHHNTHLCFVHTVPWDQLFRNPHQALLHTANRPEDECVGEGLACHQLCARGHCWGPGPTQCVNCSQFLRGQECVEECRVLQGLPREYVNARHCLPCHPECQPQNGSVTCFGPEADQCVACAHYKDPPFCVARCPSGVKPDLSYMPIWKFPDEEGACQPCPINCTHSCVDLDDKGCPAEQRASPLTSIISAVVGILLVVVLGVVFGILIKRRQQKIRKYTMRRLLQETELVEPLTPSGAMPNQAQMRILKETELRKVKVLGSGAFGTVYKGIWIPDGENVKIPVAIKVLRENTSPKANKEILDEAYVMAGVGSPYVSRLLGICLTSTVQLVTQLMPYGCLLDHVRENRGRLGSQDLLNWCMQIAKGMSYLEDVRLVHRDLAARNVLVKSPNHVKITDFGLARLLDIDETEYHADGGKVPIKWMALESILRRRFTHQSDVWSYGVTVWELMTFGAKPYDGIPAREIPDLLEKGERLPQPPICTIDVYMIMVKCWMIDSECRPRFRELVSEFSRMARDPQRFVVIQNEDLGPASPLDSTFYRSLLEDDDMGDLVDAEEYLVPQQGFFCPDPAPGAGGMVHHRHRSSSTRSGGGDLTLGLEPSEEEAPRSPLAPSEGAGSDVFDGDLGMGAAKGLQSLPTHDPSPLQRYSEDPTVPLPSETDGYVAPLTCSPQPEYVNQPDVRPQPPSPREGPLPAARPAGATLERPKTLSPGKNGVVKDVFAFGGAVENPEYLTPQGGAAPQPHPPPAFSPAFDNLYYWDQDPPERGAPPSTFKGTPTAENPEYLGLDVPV
Experimental: (§1) EC50 values were determined with the same application.

EGFR WT [7] = molecular target: T1, EGFR WT; test: BaF3 cell proliferation assay, EGFR WT (Table A); conditions: potency code, 3 days, CellTiterGlo, read-out: EGFR WT (Activity for Inhibiting EGFR)
Summary of the method: (§2)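 Steps: HEK 293T transfected with pMXs-IRES-Blasticidin kinase vector plus Gag-Pol and VSV-G; virus harvested at 24 and 48 hrs; BaF3 infected twice by centrifugation, Blasticidin-selected, then grown without IL-3. Proliferation EC50 measured.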

EGFR V3 [8] = molecular target: T2, EGFR V3; test: BaF3 cell proliferation assay, EGFR V3 (Table A); conditions: potency code, 3 days, CellTiterGlo, read-out: EGFR V3 (Activity for Inhibiting EGFR)
Summary of the method: as §2

EGFR NPH [9] = molecular target: T3, EGFR NPH; test: BaF3 cell proliferation assay, EGFR NPH (Table A); conditions: potency code, 3 days, CellTiterGlo, read-out: EGFR NPH (Activity for Inhibiting EGFR)
Experimental: (§3) Retroviral Production: EGFR mutants were subcloned into pMXs-IRES-Blasticidin (RTV-016, Cell Biolabs, San Diego, Calif.). Retroviral expression vector retrovirus was produced by transient transfection of HEK 293T cells with the retroviral EGFR mutant expression vector pMXs-IRES-Blasticidin (RTV-016, Cell Biolabs), pCMV-Gag-Pol vector and pCMV-VSV-G-Envelope vector. Briefly, HEK 293T/17 cells were plated in 100 mm collagen coated plate (354450, Corning Life Sciences, Tewksbury, Mass.) (4×10^5 per plate) and incubated overnight. The next day, retroviral plasmids (3 μg of EGFR mutant, 1.0 μg of pCMV-Gag-Pol and 0.5 μg pCMV-VSV-G) were mixed in 500 μl of Optimem (31985, Life Technologies). The mixture was incubated at room temperature for 5 min and then added to Optimem containing transfection reagent Lipofectamine (11668, Invitrogen) and incubated for 20 minutes. Mixture was then added dropwise to HEK 293T cells. The next day the medium was replaced with fresh culture medium and retrovirus was harvested @ 24 and 48 hrs.
(§4) Generation of EGFR mutant stable cell lines: BaF3 cells (1.5E5 cells) were infected with 1 ml of viral supernatant supplemented with 8 μg/ml polybrene by centrifuging for 30 min at 1000 rpm. Cells were placed in a 37° C. incubator overnight. Cells were then spun for 5 minutes to pellet the cells. Supernatant was removed and cells re-infected a fresh 1 ml of viral supernatant supplemented with 8 μg/ml polybrene by centrifuging for 30 min at 1000 rpm. Cells were placed in 37° C. incubator overnight. […] After 48 hours cells were selected for retroviral infection in 10 μg/ml Blasticidin for one week. Blasticidin resistant populations were washed twice in phosphate buffered saline before plating in media lacking IL-3 to select for IL-3 independent growth.
as §1

EGFR SVD [10] = molecular target: T4, EGFR SVD; test: BaF3 cell proliferation assay, EGFR SVD (Table A); conditions: potency code, 3 days, CellTiterGlo, read-out: EGFR SVD (Activity for Inhibiting EGFR)
Experimental: as §3, §4, §1

HER2 WT [11] = molecular target: T5, HER2 WT; test: BaF3 cell proliferation assay, HER2 WT (Table B); conditions: potency code, 3 days, CellTiterGlo, read-out: HER2 WT (Activity for Inhibiting HER2)
HER2 S310F [12] = molecular target: T6, HER2 S310F; test: BaF3 cell proliferation assay, HER2 S310F (Table B); conditions: potency code, 3 days, CellTiterGlo, read-out: HER2 S310F (Activity for Inhibiting HER2)
HER2 YVMA [13] = molecular target: T7, HER2 YVMA (Homo sapiens, UniProt P04626, INS775YVMA); test: Activity for inhibiting HER2 (Table B), HER2 YVMA; conditions: read-out: HER2 YVMA, potency code (IC50)
T7 construct: expressed in transfected cells; host or cells: BaF3 (murine pro-B)
T7 sequence (P04626 with tags, fused parts or gaps INS775YVMA): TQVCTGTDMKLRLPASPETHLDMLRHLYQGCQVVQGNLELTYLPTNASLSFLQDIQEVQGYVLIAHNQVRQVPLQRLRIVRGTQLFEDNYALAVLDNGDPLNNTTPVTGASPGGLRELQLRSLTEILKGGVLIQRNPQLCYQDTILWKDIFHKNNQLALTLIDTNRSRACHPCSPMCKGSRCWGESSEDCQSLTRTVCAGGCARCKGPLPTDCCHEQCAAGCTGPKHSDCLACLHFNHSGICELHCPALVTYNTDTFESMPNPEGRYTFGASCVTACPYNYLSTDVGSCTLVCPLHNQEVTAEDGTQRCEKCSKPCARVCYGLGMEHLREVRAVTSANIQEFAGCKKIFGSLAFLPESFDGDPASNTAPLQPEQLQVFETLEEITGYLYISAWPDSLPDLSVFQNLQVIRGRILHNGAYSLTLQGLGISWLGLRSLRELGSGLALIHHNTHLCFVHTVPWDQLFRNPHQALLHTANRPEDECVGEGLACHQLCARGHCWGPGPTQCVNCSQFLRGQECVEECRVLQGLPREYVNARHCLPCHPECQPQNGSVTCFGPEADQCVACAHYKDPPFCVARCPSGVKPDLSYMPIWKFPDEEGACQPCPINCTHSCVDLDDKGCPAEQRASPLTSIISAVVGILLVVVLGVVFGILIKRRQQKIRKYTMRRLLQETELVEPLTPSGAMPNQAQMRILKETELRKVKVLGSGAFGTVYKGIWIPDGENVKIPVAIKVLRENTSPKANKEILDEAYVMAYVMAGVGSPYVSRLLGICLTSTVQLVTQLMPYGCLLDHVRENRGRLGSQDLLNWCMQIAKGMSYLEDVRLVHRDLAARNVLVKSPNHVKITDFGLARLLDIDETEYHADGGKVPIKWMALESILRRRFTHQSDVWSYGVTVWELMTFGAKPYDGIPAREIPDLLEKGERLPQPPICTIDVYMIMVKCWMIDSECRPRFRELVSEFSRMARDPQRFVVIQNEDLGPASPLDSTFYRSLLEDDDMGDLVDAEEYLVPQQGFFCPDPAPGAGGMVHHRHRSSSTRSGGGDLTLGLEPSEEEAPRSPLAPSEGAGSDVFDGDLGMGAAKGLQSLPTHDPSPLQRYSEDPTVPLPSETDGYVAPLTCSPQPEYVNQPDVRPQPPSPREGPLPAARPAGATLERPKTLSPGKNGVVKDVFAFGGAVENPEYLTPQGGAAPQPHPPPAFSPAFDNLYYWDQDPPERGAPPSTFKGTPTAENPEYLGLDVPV
Experimental: as §1

HER2 YVMA [14] = molecular target: T7, HER2 YVMA; test: BaF3 cell proliferation assay, HER2 YVMA (Table B); conditions: potency code, 3 days, CellTiterGlo, read-out: HER2 YVMA (Activity for Inhibiting HER2)
[15] = Table B, read-out: HER2 WT, potency code (IC50)
[16] = text lists of compounds, read-out: IC50 value for inhibiting wild-type HER2

IC50 (EGFR WT [1])	IC50 (EGFR V3 [2])	IC50 (EGFR NPH [3])	IC50 (EGFR SVD [4])	IC50 (HER2 WT [5]; [15])	IC50 (HER2 WT [5]; [16])	IC50 (HER2 S310F [6])	IC50 (EGFR WT [7])	IC50 (EGFR V3 [8])	IC50 (EGFR NPH [9])	IC50 (EGFR SVD [10])	IC50 (HER2 WT [11])	IC50 (HER2 S310F [12])	IC50 (HER2 YVMA [13])	IC50 (HER2 YVMA [14])	SMILES
300 to 500 nM	50 to 100 nM	300 to 500 nM	300 to 500 nM	30 to 50 nM	≤ 50 nM	50 to 100 nM	300 to 500 nM	50 to 100 nM	300 to 500 nM	300 to 500 nM	30 to 50 nM	50 to 100 nM	–	–	C=CC(=O)Nc1cc2c(Nc3ccc(OCc4ccccn4)c(Cl)c3)c(C#N)cnc2cc1OCCN1CCOCC1 [compound 11]
300 to 500 nM	50 to 100 nM	300 to 500 nM	200 to 300 nM	5 to 10 nM	≤ 20 nM	30 to 50 nM	300 to 500 nM	50 to 100 nM	300 to 500 nM	200 to 300 nM	5 to 10 nM	30 to 50 nM	300 to 500 nM	300 to 500 nM	C=CC(=O)Nc1cc2c(Nc3ccc(OCc4ccccn4)c(Cl)c3)ncnc2cc1OCC1CCCN1 (stereo not drawn) [compound 13]
200 to 300 nM	10 to 20 nM	20 to 30 nM	10 to 20 nM	< 5 nM	≤ 5 nM	5 to 10 nM	200 to 300 nM	10 to 20 nM	20 to 30 nM	10 to 20 nM	< 5 nM	5 to 10 nM	30 to 50 nM	30 to 50 nM	C=CC(=O)Nc1cc2c(Nc3ccc(OCc4ccccn4)c(Cl)c3)ncnc2cc1O[C@@H]1CCN(C)C1 [compound 17]
200 to 300 nM	20 to 30 nM	100 to 200 nM	100 to 200 nM	5 to 10 nM	≤ 10 nM	20 to 30 nM	200 to 300 nM	20 to 30 nM	100 to 200 nM	100 to 200 nM	5 to 10 nM	20 to 30 nM	100 to 200 nM	100 to 200 nM	C=CC(=O)Nc1cc2c(Nc3ccc(OCc4ccccn4)c(Cl)c3)ncnc2cc1OCCN(C)C [compound 19]
200 to 300 nM	20 to 30 nM	10 to 20 nM	10 to 20 nM	< 5 nM	≤ 10 nM	10 to 20 nM	200 to 300 nM	20 to 30 nM	10 to 20 nM	10 to 20 nM	< 5 nM	10 to 20 nM	10 to 20 nM	10 to 20 nM	C=CC(=O)Nc1cc2c(Nc3ccc(OCc4ccccn4)c(Cl)c3)ncnc2cc1OCCCN1CC2CC1CO2 (stereo not drawn) [compound 20]
50 to 100 nM	20 to 30 nM	20 to 30 nM	10 to 20 nM	< 5 nM	≤ 5 nM	5 to 10 nM	50 to 100 nM	20 to 30 nM	20 to 30 nM	10 to 20 nM	< 5 nM	5 to 10 nM	30 to 50 nM	30 to 50 nM	C=CC(=O)Nc1cc2c(Nc3ccc(OCc4ccccn4)c(Cl)c3)ncnc2cc1OCCCN1CCCC1 [compound 22]
500 to 1000 nM	200 to 300 nM	20 to 30 nM	30 to 50 nM	10 to 20 nM	≤ 20 nM	10 to 20 nM	500 to 1000 nM	200 to 300 nM	20 to 30 nM	30 to 50 nM	10 to 20 nM	10 to 20 nM	50 to 100 nM	50 to 100 nM	C=CC(=O)Nc1cc2c(Nc3ccc(OCc4ccccn4)c(Cl)c3)ncnc2cc1OC1CN(C)C1 [compound 25]
100 to 200 nM	20 to 30 nM	–	–	5 to 10 nM	≤ 10 nM	10 to 20 nM	100 to 200 nM	20 to 30 nM	–	–	5 to 10 nM	10 to 20 nM	50 to 100 nM	50 to 100 nM	CC#CC(=O)Nc1cc2c(Nc3ccc(OCc4ccccn4)c(Cl)c3)ncnc2cc1OC1CCN(C)C1 (stereo not drawn) [compound 67]
300 to 500 nM	10 to 20 nM	20 to 30 nM	20 to 30 nM	–	–	10 to 20 nM	300 to 500 nM	10 to 20 nM	20 to 30 nM	20 to 30 nM	–	10 to 20 nM	20 to 30 nM	20 to 30 nM	C=CC(=O)Nc1cc2c(Nc3ccc(OCc4ccccn4)c(Cl)c3)ncnc2cc1OCCCN1CCN(C)CC1 [compound 69]
50 to 100 nM	10 to 20 nM	50 to 100 nM	30 to 50 nM	–	–	5 to 10 nM	50 to 100 nM	10 to 20 nM	50 to 100 nM	30 to 50 nM	–	5 to 10 nM	5 to 10 nM	5 to 10 nM	CC#CC(=O)Nc1cc2c(Nc3ccc(OCc4ccccn4)c(Cl)c3)ncnc2cc1OCCN1CCN(C)CC1 [compound 70]
500 to 1000 nM	20 to 30 nM	50 to 100 nM	50 to 100 nM	–	–	5 to 10 nM	500 to 1000 nM	20 to 30 nM	50 to 100 nM	50 to 100 nM	–	5 to 10 nM	30 to 50 nM	30 to 50 nM	C=CC(=O)Nc1cc2c(Nc3ccc(OCc4ccccn4)c(Cl)c3)ncnc2cc1C#CC(C)(C)N1CCCC1 [compound 84, N-(4-((3-chloro-4-(pyridin-2-ylmethoxy)phenyl)amino)-7-(3-methyl-3-(pyrrolidin-1-yl)but-1-yn-1-yl)quinazolin-6-yl)acrylamide]
200 to 300 nM	20 to 30 nM	20 to 30 nM	20 to 30 nM	–	–	5 to 10 nM	200 to 300 nM	20 to 30 nM	20 to 30 nM	20 to 30 nM	–	5 to 10 nM	30 to 50 nM	30 to 50 nM	C=CC(=O)Nc1cc2c(Nc3ccc(OCc4ccccn4)c(Cl)c3)ncnc2cc1C#C[C@H]1CCN(C)C1 [compound 85, N-(4-((3-chloro-4-(pyridin-2-ylmethoxy)phenyl)amino)-7-((1-methylpyrrolidin-3-yl)ethynyl)quinazolin-6-yl)acrylamide]
500 to 1000 nM	30 to 50 nM	50 to 100 nM	30 to 50 nM	–	–	20 to 30 nM	500 to 1000 nM	30 to 50 nM	50 to 100 nM	30 to 50 nM	–	20 to 30 nM	50 to 100 nM	50 to 100 nM	C=CC(=O)Nc1cc2c(Nc3ccc(OCc4ccccn4)c(Cl)c3)ncnc2cc1OCCC1(N(C)C)CC1 [compound 102, N-(4-((3-chloro-4-(pyridin-2-ylmethoxy)phenyl)amino)-7-(2-(1-(dimethylamino)cyclopropyl)ethoxy)quinazolin-6-yl)acrylamide]
